Our source for the IC50 values is US20140187548A1, “6 SUBSTITUTED IMIDAZOPYRAZINES FOR USE AS MPS-1 AND TKK INHIBITORS IN THE TREATMENT OF HYPERPROLIFERATIVE DISORDERS” (BAYER INTELLECTUAL PROPERTY GMBH, priority 2010, published 2014).

The structures appear in SMILES notation.

This assay has as its target T1, human kinase Mps-1 (Homo sapiens, UniProt P33981).
T1 construct: N-terminally GST-tagged human full length recombinant Mps-1 kinase; GST (N); purchased Invitrogen, Karslruhe, Germany PV4071
T1 sequence (P33981 1-857): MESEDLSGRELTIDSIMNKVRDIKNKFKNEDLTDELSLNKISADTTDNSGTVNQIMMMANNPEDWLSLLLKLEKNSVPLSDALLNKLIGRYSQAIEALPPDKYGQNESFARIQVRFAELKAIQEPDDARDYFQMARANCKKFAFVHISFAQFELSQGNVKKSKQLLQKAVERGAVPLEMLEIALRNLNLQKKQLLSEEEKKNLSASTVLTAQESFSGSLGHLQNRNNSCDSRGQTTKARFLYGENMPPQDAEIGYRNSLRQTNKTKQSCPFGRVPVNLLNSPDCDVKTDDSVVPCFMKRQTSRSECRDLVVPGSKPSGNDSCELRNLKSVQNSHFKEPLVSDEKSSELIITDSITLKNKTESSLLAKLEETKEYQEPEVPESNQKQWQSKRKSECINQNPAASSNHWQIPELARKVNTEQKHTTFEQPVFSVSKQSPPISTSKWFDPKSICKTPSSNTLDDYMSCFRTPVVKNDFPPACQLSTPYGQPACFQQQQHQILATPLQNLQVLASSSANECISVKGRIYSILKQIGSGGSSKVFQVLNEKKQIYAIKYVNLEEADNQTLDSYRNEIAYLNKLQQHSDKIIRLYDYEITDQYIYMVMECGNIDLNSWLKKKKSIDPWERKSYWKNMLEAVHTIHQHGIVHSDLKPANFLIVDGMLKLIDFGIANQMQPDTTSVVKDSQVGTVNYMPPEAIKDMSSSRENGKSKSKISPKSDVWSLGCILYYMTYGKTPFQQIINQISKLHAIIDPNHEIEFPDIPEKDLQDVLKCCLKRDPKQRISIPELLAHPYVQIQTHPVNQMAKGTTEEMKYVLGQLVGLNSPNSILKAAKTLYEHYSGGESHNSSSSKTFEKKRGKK
In words: Mps-1 kinase assay (TR-FRET). It is filed as biochemical. The following applies: N-terminally GST-tagged human full length recombinant Mps-1; 10 μM ATP; 1 μM peptide substrate; 15 min pre-incubation; 60 min at 22° C. The protocol:
The human kinase Mps-1 phosphorylates a biotinylated substrate peptide. Detection of the phosphorylated product is achieved by time-resolved fluorescence resonance energy transfer (TR-FRET) from Europium-labelled anti-phospho-Serine/Threonine antibody as donor to streptavidin labelled with cross-linked allophycocyanin (SA-XLent) as acceptor. Compounds are tested for their inhibition of the kinase activity.
N-terminally GST-tagged human full length recombinant Mps-1 kinase (purchased from Invitrogen, Karslruhe, Germany, cat. no PV4071) was used. As substrate for the kinase reaction a biotinylated peptide of the amino-acid sequence […] (C-terminus in amide form, purchased from Biosynthan GmbH, Berlin) was used.
The concentration of Mps-1 in the assay was adjusted to the activity of the enzyme lot and was chosen appropriate to have the assay in the linear range, typical enzyme concentrations were in the range of about 1 nM (final conc. in the 5 μl assay volume).
The resulting mixture was incubated 1 h at 22° C. to allow the binding of the phosphorylated peptide to the anti-phospho(Ser/Thr)-Europium-antibody. Subsequently the amount of phosphorylated substrate was evaluated by measurement of the resonance energy transfer from the Europium-labelled anti-phospho(Ser/Thr) antibody to the Streptavidin-XLent. Therefore, the fluorescence emissions at 620 nm and 665 nm after excitation at 350 nm was measured in a Viewlux TR-FRET reader (PerkinElmer LAS, Rodgau-Jügesheim, Germany). The “blank-corrected normalized ratio” (a Viewlux specific readout, similar to the traditional ratio of the emissions at 665 nm and at 622 nm, in which blank and Eu-donor crosstalk are subtracted from the 665 nm signal before the ratio is calculated) was taken as the measure for the amount of phosphorylated substrate.
What is called IC50 is the concentration needed to halve the response being measured. As for `CC(C)CNc1nc(-c2ccc(C(N)=O)cc2)cn2c(-c3ccc(C(=O)NC4CC4)cc3)cnc12` [Example 1-24, 4-{6-(4-carbamoylphenyl)-8-[(2-methylpropyl)amino]imidazo[1,2-a]pyrazin-3-yl}-N-cyclo-propylbenzamide], the 50% inhibitory concentration (IC50) came to 1.1 nM.
As to `CC(C)CNc1nc(-c2cccc(C(N)=O)c2)cn2c(-c3ccc(C(=O)NC4CC4)cc3)cnc12` [Example 1-25, 4-{6-(3-carbamoylphenyl)-8-[(2-methylpropyl)amino]imidazo[1,2-a]pyrazin-3-yl}-N-cyclo-propylbenzamide], the IC50 was 1.2 nM.
`CC(C)CNc1nc(-c2ccc(C(=O)N3CCCC3)cc2)cn2c(-c3ccc(C(=O)NC4CC4)cc3)cnc12` [Example 1-26, N-cyclopropyl-4-{8-[(2-methylpropyl)amino]-6-[4-(pyrrolidin-1-yl-carbonyl)phenyl]imidazo [1,2-a]pyrazin-3-yl} benzamide]: the IC50 was 3.9 nM.
Next, `CC(C)CNc1nc(-c2cccc(C(=O)N(C)C)c2)cn2c(-c3ccc(C(=O)NC4CC4)cc3)cnc12` [Example 1-27, 3-{3-[4-(cyclopropyl-carbamoyl)phenyl]-8-[(2-methylpropyl)amino]imidazo[1,2-a]pyrazin-6-yl}-N,N-dimethyl-benzamide]: 8.1 nM; `CC(C)CNc1nc(-c2ccccc2C(=O)N(C)C)cn2c(-c3ccc(C(=O)NC4CC4)cc3)cnc12` [Example 1-28, 2-{3-[4-(cyclopropyl-carbamoyl)phenyl]-8-[(2-methylpropyl)amino]imidazo[1,2-a]pyrazin-6-yl}-N,N-dimethyl-benzamide]: 8.2 nM.
With `CC(C)CNc1nc(-c2cccc(OC(C)C)c2)cn2c(-c3ccc(C(=O)NC4CC4)cc3)cnc12` [Example 1-29, N-cyclopropyl-4-{8-[(2-methylpropyl)amino]-6-[3-(propan-2-yloxy)phenyl]imidazo[1,2-a]pyrazin-3-yl}benzamide], the IC50 worked out at 15.1 nM.
Next, `CC(C)CNc1nc(-c2ccc(C(=O)NC3CC3)cc2)cn2c(-c3ccc(C(=O)NC4CC4)cc3)cnc12` [Example 1-30, 4,4′-{8-[(2-methylpropyl)amino]imidazo[1,2-a]pyrazine-3,6-diyl}bis (N-cyclopropylbenzamide)]: 1.5 nM; `CNC(=O)c1ccc(-c2cn3c(-c4ccc(C(=O)NC5CC5)cc4)cnc3c(NCC(C)C)n2)cc1` [Example 1-31, 4-{3-[4-(cyclopropyl-carbamoyl)phenyl]-8-[(2-methylpropyl)amino]imidazo[1,2-a]pyrazin-6-yl}-N-methylbenzamide]: 1.3 nM.
On to `CC(C)CNc1nc(-c2cccc3cnccc23)cn2c(-c3ccc(C(=O)NC4CC4)cc3)cnc12` [Example 1-32, N-cyclopropyl-4-{6-(iso-quinolin-5-yl)-8-[(2-methylpropyl)amino]imidazo[1,2-a]pyrazin-3-yl}benzamide], for which the concentration for half-maximal inhibition (IC50) was 1.3 nM.
Next, `CNC(=O)c1cccc(-c2cn3c(-c4ccc(C(=O)NC5CC5)cc4)cnc3c(NCC(C)C)n2)c1` [Example 1-33, 3-{3-[4-(cyclopropyl-carbamoyl)phenyl]-8-[(2-methylpropyl)amino]imidazo[1,2-a]pyrazin-6-yl}-N-methylbenzamide]: 1.4 nM.
On to `CC(C)CNc1nc(-c2ccc(C(=O)NC(C)C)cc2)cn2c(-c3ccc(C(=O)NC4CC4)cc3)cnc12` [Example 1-34, 4-{3-[4-(cyclopropyl-carbamoyl)phenyl]-8-[(2-methylpropyl)amino]imidazo[1,2-a]pyrazin-6-yl}-N-(propan-2-yl) benzamide], for which the IC50 is 4.2 nM.
With `CC(C)CNc1nc(-c2cccc(C(F)(F)F)c2)cn2c(-c3ccc(C(=O)NC4CC4)cc3)cnc12` [Example 1-35, N-cyclopropyl-4-{8-[(2-methylpropyl)amino]-6-[3-(trifluoromethyl)phenyl]imidazo[1,2-a]pyrazin-3-yl}benzamide], the IC50 worked out at 49.3 nM.
